From the supplement of paper PMC9151546
± gives the standard deviation of the averaged measurements.

How the values were obtained:
CHO-K1 [1] = test: benchmark concentration for 30% increase in micronucleus frequency (BMC30); higher = less potent clastogen
Experimental: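 Benchmark concentration modelling (PROAST, Hill/exponential model families) of the 19-concentration flow-cytometric micronucleus assay in CHO-K1 cells, with and without rat liver S9. Only non-cytotoxic and adequate (relative survival >=40%) concentrations were used. BMR was a 30% increase in %MN (BMC30) or a 60% increase in %hypodiploid (BMC60) over control.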

CHO-K1 [2] = test: benchmark concentration for 60% increase in hypodiploid frequency (BMC60); higher = less potent aneugen
Summary of the method: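 CHO cells were exposed to 19 concentrations (4.50–200 µM; 1% DMSO vehicle) for 24 h at 37 °C without S9, or 3–4 h with Aroclor 1254-induced rat liver S9 then 24 h recovery. Hypodiploid nuclei percentage was measured by flow cytometry; concentrations with relative survival below 40% were excluded, and benchmark response was a 60% increase over DMSO control. The benchmark concentration was fitted in PROAST with Hill and exponential model families.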

[3] = S9 metabolic activation: with S9
[4] = S9 metabolic activation: without S9

Row | SMILES | benchmark concentration (CHO-K1 [1]; [3]) [µM] | benchmark concentration (CHO-K1 [2]; [3]) [µM] | benchmark concentration (CHO-K1 [2]; [4]) [µM] | benchmark concentration (CHO-K1 [1]; [4]) [µM]
1 | CN(C)c1ccc(Cc2ccc(N(C)C)cc2)cc1 [4,4'-Methylenebis(N,N-dimethylaniline)] | 56 | 75 | 38 | –
2 | CC1(C)C(=O)N(Cl)C(=O)N1Cl [1,3-Dichloro-5,5-dimethylhydantoin] | – | – | 55 | 31
3 | CC(O)CO (configuration not stated) [1,2-Propylene glycol] | – | – | 44 | 130
4 | c1ccc(/N=N/c2ccccc2)cc1 [Azobenzene] | 32 | 37 | 87 | –
5 | Nc1ccc(-c2ccc(N)cc2)cc1 [Benzidine] | – | – | 18 | 18
6 | O=NN(c1ccccc1)c1ccccc1 [N-Nitrosodiphenylamine] | 120 | – | 25 | 72
7 | Cc1cccc(C)c1O [2,6-Dimethylphenol] | – | – | 110 | 87
8 | CC(C)(C)c1cc(O)ccc1O [tert-Butylhydroquinone] | 22 | 23 | – | –
9 | c1ccc(NNc2ccccc2)cc1 [1,2-Diphenylhydrazine] | 22 | 45 | 68 | 46
10 | CN(C)C(=O)Nc1ccc(Cl)cc1 [Monuron] | – | – | 82 | 8.6
11 | CCCCCCCC1CCC(=O)O1 (configuration not stated) [5-Heptyldihydro-2(3H)-furanone] | – | – | 79 | 75
12 | Cc1cc(Cc2ccc(N)c(C)c2)ccc1N [4,4'-Methylenebis(2-methylaniline)] | – | – | 33 | 37
13 | C/C=C/C=C/C(=O)O [Sorbic acid] | – | – | 37 | 29
14 | CC(C)(c1ccc(O)cc1)c1ccc(O)cc1 [Bisphenol A] | – | – | 48 | 71
15 | O=C1NC(=O)C(c2ccccc2)(c2ccccc2)N1 [5,5-Diphenylhydantoin] | – | – | 17 | 13
16 | CCSC(=O)N1CCCCCC1 [Molinate] | 41 | – | 61.5 ± 3.5 | –
